According to publication PMC12455397 (Angewandte Chemie (International Ed. in English), 2025):

Assays:
[1] = system: cGAS-STING pathway in macrophage-derived THP-1 cells; test: cGAS-STING pathway in THP-1 macrophages (WB); assay type: cell-based; conditions: 100 µM, 24 h; cGAMP 4 µg/mL 6 h
[2] = system: NLRP3 inflammasome in macrophage-derived THP-1 cells; test: NLRP3 inflammasome / TLR4 activation in THP-1 macrophages (WB, ELISA); assay type: cell-based; conditions: 100 µM, 24 h
[3] = system: IFN signalling in macrophage-derived THP-1 cells; test: Type I IFN signalling after IFNβ stimulation in THP-1 macrophages (WB); assay type: cell-based; conditions: 100 µM, 24 h; IFNβ 500 U/mL 1 h
[4] = system: Nrf2-regulated genes (AKR1B10, NQO1, TRXR1, HO-1) in HaCaT human keratinocytes; test: HaCaT cell assay, RT-qPCR of Nrf2-regulated genes; assay type: cell-based; conditions: WT HaCaT, 3, 1 and 0.33 µM, 5 h, normalized to TBP
human Keap1 Kelch = human Keap1 Kelch (Homo sapiens, UniProt Q14145); test: Fluorescence polarization (FP) competition assay with Cy5-Nrf2 peptide probe; conditions: for Ki: ≥3 individual measurements
[5] = system: differentiated THP1 macrophages (WT)
[6] = system: NQO1 mRNA in BEAS-2B cells; test: qPCR-based BEAS-2B cell assay (NQO1 mRNA); design: species or system human; conditions: Homo sapiens, BEAS-2B, mean ± SEM, 2-4 independent experiments
Protocol: RT-qPCR were stimulated with compounds or DMSO diluted in DMEM and incubated for 24 h. DMSO was added accordingly to highest percentage compound volume added.
Upon 24 hour compound stimulation, the cells were trypsinized, washed, spun down and resuspended in 70 μL of ice-cold Pierce RIPA lysis buffer (Thermo Scientific) supplemented with 10 mM NaF, 1× complete protease cocktail inhibitor (Roche), and 5 IU mL-1 benzonase (Sigma), respectively. The protein concentrations were determined using the BCA protein assay kit (Thermo Scientific) and samples was equalized accordingly to the sample of lowest protein concentration. 1×XT sample buffer (Bio-Rad) and 1×XT reducing agent (Bio-Rad) were added to the samples, and lysates were denatured by boiling for 5 min at 95 °C. Denatured samples was separated by SDS-PAGE on a 4–20% Criterion TGX precast gradient gel (Bio-Rad). The gel ran initially for 20 min at 70 V and 45 min at 120 V and was then transferred onto a PVDF membrane (Bio-Rad) using a Trans-Blot Turbo transfer system. […]
Upon 5 hour compound stimulation, RNA was extracted from the cells using the High Pure RNA Isolation Kit (Roche, 11828665001) according to the manufacturer’s instructions. […] The quality and purity of the RNAs were assessed by Nanodrop spectrometry (DeNovix DS-11). Using the TaqMan detection systems, the gene expression of HO-1 (HMOX-1), NQO1, AKR1B10, and TRXR1 was determined by real-time PCR. […] The commercially available TaqMan assay (Thermo Fischer Scientific, cat. no. 4392938) was used, and samples were analyzed in a final volume of 10 μL reaction mix containing 5 μL of master mix, 0.2 μL of RT enzyme, 2.3 μL of nuclease-free water, […] (TATA-Box Binding Protein/TBP; […]
Hs00917067_m1, Thermo Fisher), and 2 μL of pure RNA. The samples were analyzed using a QuantStudioTM 3 real-time PCR instrument with the following program: 1 × (10 min, 48.0 °C; 10 min, 95.0 °C); 40 × (30 s, 95.0 °C; 1 min, 60.0 °C). […]
The upregulation of NQO1 mRNA in BEAS-2B cells was measured by qPCR, as previously described.[20] […]

[7] = system: Nrf2-regulated genes (AKR1B10, NQO1, TRXR1, HO-1) in HaCaT human keratinocytes; test: HaCaT cell assay, Western Blotting of Nrf2-regulated proteins; assay type: cell-based; conditions: 24 h
[8] = system: Nrf2 KO THP1 cells differentiated into macrophages; test: RNA sequencing transcriptome analysis, Nrf2 KO THP-1 macrophages; assay type: cell-based; conditions: 12 h, CDDO-Me 0.1 µM, DMF, 24, 28 10 µM, KI-696 1 µM
THP1 cells = assay type: cell-based; conditions: THP-1 WT, 10 and 100 µM, 48 h
Protocol: THP1 cells were exposed to the compounds for 48 hours at 10 and 100 μM. Viability was quantified using
propidium iodide exclusion through flow cytometry. PI-positive cells (dead or necrotic cells) were quantified
through red fluorescence on a BD C6 Accuri flow cytometer using a 488 nm excitation wavelength and an
emission filter of 585 nm ± 40 nm (BD Biosciences). 50,000 events were collected (n = 3 technical replicates
per condition). The experiment was repeated twice. Data are presented as mean ± SEM (n = 4‒10).

[9] = LPS or LPS+nigericin stimulation
[10] = WT, 12 h, CDDO-Me 0.1 µM, SFN, DMF, 24, 28 10 µM, KI-696 1 µM, NS = not significant

Sequence of human Keap1 Kelch (Q14145 321-609): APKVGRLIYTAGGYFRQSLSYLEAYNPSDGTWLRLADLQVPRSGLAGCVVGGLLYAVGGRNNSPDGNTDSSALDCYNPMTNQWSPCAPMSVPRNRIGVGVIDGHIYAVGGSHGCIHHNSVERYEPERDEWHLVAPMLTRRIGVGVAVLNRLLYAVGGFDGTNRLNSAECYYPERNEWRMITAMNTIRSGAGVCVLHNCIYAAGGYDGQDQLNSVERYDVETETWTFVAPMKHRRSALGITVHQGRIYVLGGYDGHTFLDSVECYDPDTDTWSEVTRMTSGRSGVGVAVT

Cc1cc2c(cc1C(CC(=O)O)c1ccc3ccc(OCC(=O)NC4CCCCCC4)cc3c1)OCO2 (stereo not shown) [Compound 24]
ISG15 levels (WB) [1]: reduced levels | total STING levels and STING activation (phosphorylated STING and TBK1) (WB) [1]: reduced total STING levels and STING activation | NLRP3 inflammasome activation: release of cleaved caspase-1 and cleaved IL-1β in supernatants (WB) [2]: markedly decreased NLRP3 inflammasome activation | cleavage of gasdermin D (GSDMD) (WB) [2]: prevented the cleavage of gasdermin D | IL-1β release (ELISA) following NLRP3 activation ([2]; LPS 100 ng/mL 3 h + nigericin 10 µM 1 h): confirmed a decrease | IL-1β release (ELISA) following high concentrations of LPS ([2]; LPS 2 µg/mL 6 h): no statistical difference was observed | expression of NLRP3 (WB) [2, 9]: markedly reduced | total protein levels of pro-IL-1β (WB) [2, 9]: also reduced | IFN signalling (phosphorylated STAT1, IFIT1 protein levels) (WB) [3]: did not affect IFN signalling | target gene mRNA expression (RT-qPCR) [4]: several‐fold increases in target gene mRNA expression | Ki (human Keap1 Kelch; FP (Ki/nM), Table S2, mean ± SEM, NA: not active (measured up to 4 mM)): 10.1 ± 1.4 nM | Ki (human Keap1 Kelch; Ki (FP), mean, text and figures): 10 nM | fold difference in affinity (FP) between the enantiomers of 24 (human Keap1 Kelch; Peak 1 vs Peak 2 after chiral HPLC separation): 14 fold | ligand efficiency (LE) (human Keap1 Kelch; from FP Ki): 0.30 | AKR1B10 FC ([5]; Table S3, THP-1, 12 h): 6,62 fold | CASP1 FC ([5]; Table S3, THP-1, 12 h): 0,65 fold | COL1A1 FC ([5]; Table S3, THP-1, 12 h): 1,40 fold | COL4A1 FC ([5]; Table S3, THP-1, 12 h): 1,16 fold | COL4A2 FC ([5]; Table S3, THP-1, 12 h): 1,10 fold | CYP1B1 FC ([5]; Table S3, THP-1, 12 h): 1,14 fold | GPX1 FC ([5]; Table S3, THP-1, 12 h): 0,60 fold | GPX4 FC ([5]; Table S3, THP-1, 12 h): 1,13 fold | IFNAR1 FC ([5]; Table S3, THP-1, 12 h): 0,93 fold | IFNAR2 FC ([5]; Table S3, THP-1, 12 h): 1,00 fold | IFNGR1 FC ([5]; Table S3, THP-1, 12 h): 0,63 fold | IFNGR2 FC ([5]; Table S3, THP-1, 12 h): 0,73 fold | IL1B FC ([5]; Table S3, THP-1, 12 h): 0,85 fold | IRF3 FC ([5]; Table S3, THP-1, 12 h): 0,96 fold | LAMB1 FC ([5]; Table S3, THP-1, 12 h): 5,65 fold | LAMB4 FC ([5]; Table S3, THP-1, 12 h): 4,43 fold | MMP8 FC ([5]; Table S3, THP-1, 12 h): 0,79 fold | MMP9 FC ([5]; Table S3, THP-1, 12 h): 0,91 fold | MMP12 FC ([5]; Table S3, THP-1, 12 h): 0,51 fold | NLRP3 FC ([5]; Table S3, THP-1, 12 h): 0,79 fold | NOD2 FC ([5]; Table S3, THP-1, 12 h): 0,35 fold | NOXA1 FC ([5]; Table S3, THP-1, 12 h): 0,41 fold | SOCS1 FC ([5]; Table S3, THP-1, 12 h): 2,11 fold | SOCS3 FC ([5]; Table S3, THP-1, 12 h): 2,26 fold | SOD1 FC ([5]; Table S3, THP-1, 12 h): 0,41 fold | SOD2 FC ([5]; Table S3, THP-1, 12 h): 0,59 fold | STAT1 FC ([5]; Table S3, THP-1, 12 h): 0,82 fold | TBK1 FC ([5]; Table S3, THP-1, 12 h): 0,86 fold | TLR4 FC ([5]; Table S3, THP-1, 12 h): 1,17 fold | TNFRSF1B FC ([5]; Table S3, THP-1, 12 h): 1,08 fold | TRAP1 FC ([5]; Table S3, THP-1, 12 h): 0,82 fold | cGAS FC ([5]; Table S3, THP-1, 12 h): 1,36 fold | KEGG pathway analysis of upregulated genes ([5]; WT, 10 µM, 12 h): activated other important gene clusters involved in cytokine receptor interaction and activation of immune cells | Average FC of upregulated Nrf2-dependent genes ([5]; WT, 12 h, CDDO-Me 0.1 µM, SFN, DMF, 24, 28 10 µM, KI-696 1 µM): 2.7 fold | GCLM fold change vs vehicle [5, 10]: 3.0 fold | HMOX1 fold change vs vehicle [5, 10]: 2.2 fold | SRXN1 fold change vs vehicle [5, 10]: 2.5 fold | TXNRD1 fold change vs vehicle [5, 10]: 2.9 fold | NQO1 upregulation at 24 h ([5]; WT, 24 h, 10 µM (footnote * of Figure 7c)): 1.5 fold | EC50 [6]: 110 nM | protein levels of Nrf2-regulated genes by WB ([7]; HaCaT, 10 µM): strong bands in WB for all tested proteins | relative cell potency among the six compounds (WB) ([7]; HaCaT, 10, 3, 1 µM): most potent | number of up- or downregulated genes in Nrf2 KO cells [8]: 347 genes | cell viability (THP1 cells): did not reduce cell viability
